# Assay results from patent publication US20260062677A1, “ECTODERMAL MESENCHYMAL STEM CELLS AND METHOD FOR PRODUCING SAME” (STEMRIM INC., priority 2017, published 2026).
# Experiments:
# [1] = tested on: colony-forming Pα cells in peripheral blood; test: Colony assay of cultured peripheral blood after HA1-44 peptide administration; assay type: in vivo, mouse; conditions: FIG. 24
# Experimental: The following method was used to recover cells from peripheral blood. Approximately 800 to 1000 μL of peripheral blood was collected from the heart under general anesthesia (using a 1 mL syringe containing heparin). To remove red blood cells, Hetasep (STEMCELL Technologies, Inc., Cat No. ST-07906) at equal amount of the collected blood was added, the mixture was centrifuged at 100 G for 2 minutes, and incubated at room temperature for 15 minutes, then the supernatant was recovered. The supernatant was subjected to the next experiment as a sample containing nuclear cells in peripheral blood.
# The supernatant obtained by the above procedure (sample containing nucleated cells in peripheral blood) was seeded in a 6-well plate coated with collagen I (Corning Incorporated, Cat No. 356400), and cultured for 10 days under a condition of 37° C., 5% CO2, 5% 02 using a medium containing 1% L-glutamine (NACALAI TESQUE, INC.), 10 μM ROCK inhibitor (Y27632, Tocris Bioscience) and 1% penicillin/streptomycin (NACALAI TESQUE, INC.) in an expansion medium prepared using a MesenCult Expansion Kit (STEMCELL Technologies, Inc., Cat No. ST-05513) according to the manual of the kit (all concentrations described are final concentrations). The medium was replaced with a fresh medium twice a week during the culture period. […]
# [2] = tested on: Pα^lin+ cells in grafted skin; test: Parabiosis model (Pα-Cre::Rosa26-EYFP / wild-type) with epidermolysis bullosa mouse skin graft; assay type: in vivo; conditions: peptide given to the Pα-Cre::Rosa26-EYFP partner, epidermolysis bullosa skin grafted on the wild-type partner; FIG. 25
# Text: (§1) A parabiosis model was created using a 6-week old male wild-type mouse and a 6-week old male cell lineage tracing mouse with reference to Kamran P et al. J Vis Exp. 2013 Oct. 6; (80). Two mice were simultaneously subjected to general anesthetic induction with isoflurane, and positioned on a heat pad. The body side surfaces opposite to each other of the two mice were shaved, and the skin was removed approximately 5 mm wide from the elbow joint to the knee joint. The dorsal skin was continuously sutured with 5-0 VICRYL. The elbow joints and knee joints each opposite to each other were sutured with 3-0 VICRYL. The abdominal skin was also continuously sutured with 5-0 VICRYL. The mice were left on the heat pad until awakened from anesthesia. To avoid restricting activity, up to one pair were raised per cage, and scattered food was offered.
# (§2) The present inventors have previously identified a peptide (HA1-44 peptide) consisting of the amino acid sequence of positions 1-44 (SEQ ID NO: 1) at the N-terminus of HMGB1 protein as a domain having the activity of mobilizing bone marrow-derived Pα-positive mesenchymal stem cells into peripheral blood. […] Furthermore, a cartilage injury was created to the knee joint of a wild-type mouse alone that was not a parabiosis model, then the HA1-44 peptide or saline was administered.
# [3] = tested on: Pα^+ and Prx1^lin− cells in the skin graft; test: Parabiosis model (Pα-H2B-GFP::Prx1-Cre::Rosa26-tdTomato / wild-type) with wild-type neonate skin graft; assay type: in vivo, mouse; conditions: peptide given to the reporter partner, neonate skin grafted on back of the wild-type partner; FIG. 26
# Text: as §1, §2
# [4] = tested on: P0^lin+ cells at the cartilage injury site; test: Parabiosis (P0-Cre::Rosa26-tdTomato / wild-type) and knee cartilage defect model; assay type: in vivo, mouse; conditions: 100 μg via tail vein, twice a week until 4 weeks; knee joint collected at 12 weeks; versus saline (no accumulation); FIG. 27
# Text: as §1
# A parabiosis model was created using a 6-week old male wild-type mouse and a 6-week old male P0-Cre::Rosa26-tdTomato mouse using the method described in 3. above. After completion of the blood chimera at 4 weeks after operation, a 0.5×0.5×0.5 mm cartilage defect was created in the knee joint of the wild-type mouse using a 0.5 mm-diameter hand-turned drill (manufactured by MEISINGER USA, L.L.C.). […] It was sliced at a thickness of 10 μm using a cryostat, and the distribution of Tomato-positive cells was analyzed by confocal microscopy. […]
# [5] = tested on: knee cartilage injury site; test: Knee cartilage defect model in wild-type mouse, safranin O staining; assay type: in vivo; conditions: wild-type mouse alone; 100 μg via tail vein twice a week until 4 weeks; 2, 4, 8 and 12 weeks; saline group only fibrous cartilage; FIG. 28
# Experimental: A parabiosis model was created using a 6-week old male wild-type mouse and a 6-week old male P0-Cre::Rosa26-tdTomato mouse using the method described in 3. above. After completion of the blood chimera at 4 weeks after operation, a 0.5×0.5×0.5 mm cartilage defect was created in the knee joint of the wild-type mouse using a 0.5 mm-diameter hand-turned drill (manufactured by MEISINGER USA, L.L.C.). Shortly after the cartilage defect was created, 100 μg of HA1-44 peptide diluted with 100 μL of saline was administered from the tail vein and subsequently administered at the same dose twice a week until 4 weeks after operation. To the control group, 100 μL of saline was administered to each mouse from the tail vein on the same schedule as in the HA1-44 peptide administration group. A knee joint was collected 12 weeks after knee cartilage defect creation, then fixation with 4% paraformaldehyde (overnight), deashing with 0.5 M EDTA solution (3 days), and 30% sucrose replacement (1 day) were performed to create a frozen block. It was sliced at a thickness of 10 μm using a cryostat, and the distribution of Tomato-positive cells was analyzed by confocal microscopy. […]
# vertebral Pα cells = test: Transcriptome and IPA pathway analysis of vertebral Pα cells after administration; assay type: in vivo, mouse; conditions: compared to control group (saline)
# Experimental: RNA was extracted from the cell population, and an RNA-seq library was created according to Smart-seq2 protocol (Nature Protocols 9, 171-181 (2014) doi: 10.1038/nprot.2014.006). The obtained library was sequenced with Nextseq 500 (Illumina, Inc.) using a nextseq high output kit (37 bp pair end reads). Using bcl2fastq v2.17.1.14 of Illumina, Inc. with default parameters and optional --no-lane-splitting, conversion of base calls to fastq format and demultiplex were performed. Reads were trimmed using TrimGalore (http://www.bioinformatics.babraham.ac.uk/projects/trim_galore/), and mapping and counting (quantification) were performed using RSEM (Li et al., BMC Bioinformatics 12, 323 (2011); version STAR-2.5.2b). Differential expression analysis among samples was performed using DESeq2 (Love et al., Genome Biol. 15, 550 (2014)). Differentially Expressed Genes (DEGs) were uploaded to the Ingenuity Pathway Analysis (IPA) software (https://www.qiagenbioinformatics.com) to extract the most relevant biological pathways and functions to DEGs. Clustering analysis was performed using ICGS algorithm of AltAnalyze_v.2.1.0-Py based on log 2 converted values of 1-added TPM (Transcripts Per kilobase Million) counts obtained with RSEM (log 2 (TPM+1)). […]
# [6] = tested on: CD45-negative, TER-119-negative, and PDGFRβ-positive cells; test: Phase I clinical study, cells in circulating blood; assay type: in vivo; conditions: human, intravenous administration; peripheral blood mononuclear cell fractions before, 8 h and 24 h after administration; FIG. 33
# Text: Since PDGFRβ is a marker of human mesenchymal stem cells, it is believed that a marker (including a combination of multiple markers) defining iCFPα cells and vertebral CFPα cells in peripheral blood described herein, in which the term “PDGFRα” is replaced with the term “PDGFRβ”, will also be a marker (including a combination of multiple markers) defining EMSC (colony-forming PDGFR-positive cells in peripheral blood or in vertebra) in humans.
substance,measurement,setting,value
HA1-44 peptide: peptide consisting of amino acid sequence of positions 1-44 (MGKGDPKKPRGKMSSYAFFVQTCREEHKKKHPDASVNFSEFSKK) at the N-terminus of A-box of HMGB1 protein,number of colonies obtained by culturing peripheral blood,"[1]; lineage tracing mice, versus control group (saline administration)",more colonies than peripheral blood in the control group
same,"markers of the colonies obtained (Pα, Prx1 lineage)",[1]; peripheral blood of lineage tracing mice given the peptide,"All of the colonies were Pα-positive, and the majority of which were Prx1 lineage-negative"
same,Pα^lin+ cells expressing type 7 collagen in regenerated epithelial tissue of the skin graft,[2],presence of Pα^lin+ cells expressing type 7 collagen was confirmed
same,Pα^+ and Prx1^lin− cells in the skin graft,[3],presence of Pα^+ and Prx1^lin− cells in the skin graft was confirmed
same,accumulation of P0^lin+ cells at the cartilage injury site,[4],accumulation of P0^lin+ cells was confirmed
same,cartilage regeneration at the cartilage injury site,[5],hyaline cartilage was regenerated
same,"pathways associated with EIF2 signaling, regulation of eIF4 and p70S6K signaling, and mTOR signaling",vertebral Pα cells; FIG. 31,activated
same,expression of cell death-related genes,vertebral Pα cells; FIG. 32,suppressed
same,"CD45-negative, TER-119-negative, and PDGFRβ-positive cells in circulating blood",[6],increase
